Data set [1] has as its target T1, human amylin receptor (hAMYR3) (Homo sapiens, UniProt O60896+P30988).
T1 construct: host or cells: BHK cells (Hollex-1 line expressing hCTR(a) and CRE-Luc), further transfected with human RAMP3
Kind of data set: Amylin receptor assay, method B (CRE-luciferase reporter, BHK cells). Type of data set: cell-based. On the procedure:
To assess how the activation of the receptors is potentially influenced by the presence of human serum albumin (HSA), the in vitro assays were performed in the absence of HSA and presence of 1% (w/v) HSA.
It is thus possible to measure hAMYR3 activity using a CRE-luciferase reporter gene introduced into Baby Hamster Kidney (BHK) cells co-expressing the hAMYR3.
The cell line was further transfected with human receptor modifying protein 3 (RAMP3) using standard methods.
After centrifugation, the cell pellet was resuspended and diluted to approximately 2.5-4.0×10^6 (2.5E+6 to 4.0E+6) cells/mL in Recovery™ Cell Culture Freezing Medium (Gibco, 12648-010). Cells were aliquoted and stored at −180° C. until use.
The assay buffer consisted of DMEM without phenol red (Gibco, 11880-028) supplemented with 1× GlutaMAX (Gibco, 35050-038), 10 mM HEPES (Gibco, 15630-056) and 1% (w/v) ovalbumin (Sigma, A5503) either with or without 0.1% (v/v) Pluronic F-68 (Gibco, 24040-032) and either with or without HSA (Sigma, A9511).
To perform the assay, hAMYR3 BHK Cre-Luc cells were thawed, washed once in PBS (Gibco 14190-094) and seeded in 40 μL growth medium in a white 384-well culture plate (PerkinElmer/Revvity, 6007688) at a cell density of 4.0×10^3 (4.0E+3) cells/well the day before the experiment. The plate was incubated over night at 37° C. in 5% CO2. […] Serial dilutions were then mixed in a new 96-well plate with equal volume (1:1:1 ratio) of assay buffer and either assay buffer without or with 3% HSA (Sigma, A-9511). Twenty microliters of the solution mix were transferred to the cells which previously were washed once with PBS (Gibco 14190-094). After a short centrifugation, the assay plates were incubated for 3 hours at 37° C. in 5% CO2 and let to equilibrated at room temperature for 10 minutes before the addition of 30 μL steadylite Plus™ PerkinElmer/Revvity, 6066759) per well. Plates were sealed and incubated at room temperature with gentle shaking for 30 minutes while protected from light. Luminescence was detected on a luminescence plate reader e.g., a Synergy 2 (BioTek).
A general note: Reporter assays use an easily measured gene product as a stand-in for the process of interest.

Data set [2] addresses T2, human GIP receptor (hGIPR) (Homo sapiens, UniProt P48546).
T2 construct: expressed in transfected cells
T2 sequence (P48546 22-466): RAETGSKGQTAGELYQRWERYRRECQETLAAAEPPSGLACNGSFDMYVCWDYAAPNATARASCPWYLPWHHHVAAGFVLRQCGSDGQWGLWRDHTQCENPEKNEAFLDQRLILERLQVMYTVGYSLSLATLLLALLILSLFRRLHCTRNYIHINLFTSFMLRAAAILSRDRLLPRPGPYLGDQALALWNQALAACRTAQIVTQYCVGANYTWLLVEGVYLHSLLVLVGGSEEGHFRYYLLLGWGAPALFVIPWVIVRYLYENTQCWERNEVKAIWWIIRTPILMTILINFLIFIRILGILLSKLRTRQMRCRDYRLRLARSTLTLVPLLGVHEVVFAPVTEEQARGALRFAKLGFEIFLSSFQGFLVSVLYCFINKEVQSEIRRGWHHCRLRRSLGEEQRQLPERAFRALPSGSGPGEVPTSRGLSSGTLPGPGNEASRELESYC
Kind of data set: GIP receptor assay, method B (CRE-luciferase reporter, BHK cells, 384-well). Type of data set: cell-based.

For data set [3], the target named is T3, human GLP-1 receptor (hGLP-1R) (Homo sapiens, UniProt P43220).
T3 construct: expressed in transfected cells
T3 sequence (P43220 24-463): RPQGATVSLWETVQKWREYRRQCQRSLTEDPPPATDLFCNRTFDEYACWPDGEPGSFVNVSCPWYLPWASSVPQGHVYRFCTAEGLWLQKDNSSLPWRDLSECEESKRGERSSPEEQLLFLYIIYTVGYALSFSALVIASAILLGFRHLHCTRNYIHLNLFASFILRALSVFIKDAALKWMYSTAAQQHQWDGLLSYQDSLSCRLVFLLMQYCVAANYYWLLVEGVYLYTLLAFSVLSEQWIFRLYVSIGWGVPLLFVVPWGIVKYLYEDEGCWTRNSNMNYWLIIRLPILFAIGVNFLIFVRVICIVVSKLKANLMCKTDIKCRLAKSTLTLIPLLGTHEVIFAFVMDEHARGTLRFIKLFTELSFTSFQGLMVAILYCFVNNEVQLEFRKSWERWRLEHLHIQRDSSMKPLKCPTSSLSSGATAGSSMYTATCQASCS
Briefly: GLP-1 receptor assay, method B (CRE-luciferase reporter, BHK cells, 384-well). The data set is classed as cell-based. Particulars: hGLP-1R Potency, 1% HSA, EC50, methods B, in the presence of 1% HSA.

A short description of data set [4]: Chemical stability assessment in formulation (UPLC-UV-MS purity loss at 37° C.). Type of data set: physicochemical. Particulars: 8 mM phosphate buffer pH 7.4, 1 mg/mL, 2 weeks. The gist of the method: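 Peptides at target 1 mg/mL in 8 mM phosphate buffer, pH adjusted to 7.4, incubated in capped vials at 37° C. and sampled over 2 weeks, frozen until analysis. Purity followed by UPLC-UV-MS with a 0.1% formic acid water/acetonitrile gradient.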

Data set [5] concerns the target T3, human GLP-1 receptor (hGLP-1R). Briefly: GLP-1 receptor assay, method A (CRE-luciferase reporter, BHK cells). The data set is classed as cell-based. The gist of the method: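 Read-out: steadylite Plus luminescence after 30 min shaking at room temperature in the dark. hGLP-1R BHK CRE-Luc cells were stimulated for 3 h at 37° C, 5% CO2. Runs were done in the absence and presence of 1% (w/v) HSA.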

The target of data set [6] is T1, human amylin receptor (hAMYR3). Briefly: Amylin receptor assay, method A (CRE-luciferase reporter, BHK cells). Type of data set: cell-based.
For data set [7], the target named is T2, human GIP receptor (hGIPR). Kind of data set: GIP receptor assay, method A (CRE-luciferase reporter, BHK cells). The data set is classed as cell-based. The procedure, abridged:
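BHK cells co-expressing hGIPR and a CRE-luciferase reporter, plated 21-23 h before assay, stimulated 3 h at 37 °C with compounds (7-point 10-fold titration, duplicates) in ovalbumin-containing DMEM buffer with or without 1% HSA final. Luminescence read; EC50 (pM) from four-parameter logistic fit with shared Hill slope.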

Where [8] appears, read: hGLP-1R Potency, 1% HSA, EC50, method A, in the presence of 1% HSA.
Setting [9] is: method A, absence of HSA, read-out: hGLP-1R Potency, no HSA, EC50.
Setting [10] is: hAMYR3 Potency, 1% HSA, EC50, method A, in the presence of 1% HSA.
Where [11] appears, read: method A, absence of HSA, read-out: hAMYR3 Potency, no HSA, EC50.
Where [12] appears, read: hGIPR Potency, 1% HSA, EC50, method A, in the presence of 1% HSA.
The mark [13] stands for this setting: method A, absence of HSA, read-out: hGIPR Potency, no HSA, EC50.

Numbered stars: 1 amine (or outer) side, 2 acyl side, 3 side chain; on linkers, the order of the positions; unused ones are H or OH. Square brackets hold non-standard residues; d marks the D form. Side chains are listed from the residue outwards. * marks the point of attachment. C18 diacid = O=C(O)CCCCCCCCCCCCCCCCC(=O)*; γGlu = O=C(O)[C@H](CCC(=O)[*:2])N[*:1]; AEEA = NCCOCCOCC(=O)O; Aib = CC(C)(N)C(=O)O

T1 sequence (P30988 25-474): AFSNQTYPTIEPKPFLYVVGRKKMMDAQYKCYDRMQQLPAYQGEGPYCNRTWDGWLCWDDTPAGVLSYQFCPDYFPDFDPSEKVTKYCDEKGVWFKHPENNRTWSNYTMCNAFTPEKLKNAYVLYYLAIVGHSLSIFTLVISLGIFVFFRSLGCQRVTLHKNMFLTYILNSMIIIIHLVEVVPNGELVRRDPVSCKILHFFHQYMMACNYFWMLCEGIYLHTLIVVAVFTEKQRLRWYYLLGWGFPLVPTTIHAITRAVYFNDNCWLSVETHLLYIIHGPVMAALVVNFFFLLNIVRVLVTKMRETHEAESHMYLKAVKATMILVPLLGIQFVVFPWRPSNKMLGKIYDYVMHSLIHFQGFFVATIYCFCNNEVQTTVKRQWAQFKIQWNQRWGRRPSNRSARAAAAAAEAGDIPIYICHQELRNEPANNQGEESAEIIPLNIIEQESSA
T1 sequence (O60896 24-148): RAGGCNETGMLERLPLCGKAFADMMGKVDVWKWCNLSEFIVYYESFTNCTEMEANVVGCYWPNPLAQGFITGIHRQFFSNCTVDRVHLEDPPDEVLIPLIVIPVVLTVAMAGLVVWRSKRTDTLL

Turning to `CC[C@H](C)[C@H](NC(=O)[C@H](CCC(=O)O)NC(=O)[C@H](CCC(=O)O)NC(=O)[C@H](CC(C)C)NC(=O)[C@H](CC(C)C)NC(=O)[C@@H](NC(=O)[C@H](CO)NC(=O)[C@H](Cc1ccc(O)cc1)NC(=O)[C@H](CC(=O)O)NC(=O)[C@H](CO)NC(=O)[C@@H](NC(=O)[C@H](Cc1ccccc1)NC(=O)[C@@H](NC(=O)CNC(=O)[C@H](CCC(=O)O)NC(=O)C(C)(C)NC(=O)[C@@H](N)Cc1ccc(O)cc1)[C@@H](C)O)[C@@H](C)O)[C@@H](C)CC)C(=O)N[C@@H](C)C(=O)N[C@@H](C)C(=O)N[C@@H](CCCNC(=N)N)C(=O)N[C@@H](CCC(=O)O)C(=O)N[C@@H](Cc1ccccc1)C(=O)N[C@H](C(=O)N[C@@H](CCC(=O)O)C(=O)N[C@@H](Cc1c[nH]c2ccccc12)C(=O)N[C@@H](CC(C)C)C(=O)N[C@@H](CC(C)C)C(=O)N[C@@H](C)C(=O)NCC(=O)NCC(=O)N1CCC[C@H]1C(=O)N[C@@H](CO)C(=O)N[C@@H](CO)C(=O)NCC(=O)N[C@@H](C)C(=O)NCC(=O)N[C@@H](CCC(N)=O)C(=O)N[C@@H](C)C(=O)N1CCC[C@H]1C(=O)NCC(=O)N[C@@H](CCC(N)=O)C(=O)N[C@@H](C)C(=O)N1CCC[C@H]1C(=O)NCC(=O)N[C@@H](C)C(=O)N[C@@H](CO)C(=O)N[C@@H](Cc1c[nH]cn1)C(=O)N[C@@H](CC(C)C)C(=O)N[C@@H](CO)C(=O)N[C@H](C(=O)N[C@@H](C)C(=O)N[C@@H](CCC(N)=O)C(=O)N[C@H](C(=O)N[C@@H](CCC(N)=O)C(=O)N[C@@H](CCCNC(=N)N)C(=O)N[C@@H](CC(C)C)C(=O)N[C@@H](CO)C(=O)N[C@@H](C)C(=O)N[C@@H](CCC(=O)O)C(=O)N[C@@H](CC(C)C)C(=O)N[C@@H](Cc1c[nH]cn1)C(=O)N[C@@H](CCCCNC(=O)COCCOCCNC(=O)COCCOCCNC(=O)CC[C@H](NC(=O)CCCCCCCCCCCCCCCCCCC(=O)O)C(=O)O)C(=O)N[C@@H](CC(C)C)C(=O)N[C@@H](C)C(=O)N[C@H](C(=O)N[C@@H](CC(C)C)C(=O)N1CCC[C@H]1C(=O)N[C@@H](CCCNC(=N)N)C(=O)N[C@H](C(=O)N[C@@H](CCC(=O)O)C(=O)N[C@H](C(=O)NCC(=O)N[C@@H](CO)C(=O)NCC(=O)N[C@@H](CO)C(=O)N1CCC[C@H]1C(N)=O)[C@@H](C)O)[C@@H](C)O)[C@@H](C)O)[C@@H](C)O)[C@@H](C)O)[C@@H](C)CC` [Compound 120], the EC50 is 774 pM in data set [1] (hAMYR3 Potency, 1% HSA, EC50, methods B, in the presence of 1% HSA); 6.31 pM in data set [1] (method B, absence of HSA, read-out: hAMYR3 Potency, no HSA, EC50); 20 pM in data set [2] (hGIPR Potency, 1% HSA, EC50, methods B, in the presence of 1% HSA); 2.9 pM in data set [2] (method B, absence of HSA, read-out: hGIPR Potency, no HSA, EC50); 129 pM in data set [3].
For the compound “H[Aib]HGTFTSDYSILLEEQAAREFIEWLLAGGPSSGAGQAPGQAPGASHLSTAQTQRLSAELHRLATLPK([AEEA-AEEA-γGlu-C18 diacid])TETGSGSP-NH2 [Compound 92]”, in data set [4], the “Purity loss per week at 37° C.” value is reported as 2.8%. Further, the EC50 came to 13.4 pM in data set [5] (setting [8]); 2.55 pM in data set [5] (setting [9]); 75.1 pM in data set [6] (setting [10]); 2.64 pM in data set [6] (setting [11]); 8.53 pM in data set [7] (setting [12]); 3.12 pM in data set [7] (setting [13]).
“H[Aib]HGTFTSDYSILLEEQAAREFIEWLLAGGPSSGEASHLSTAQTQRLSAELHK([AEEA-AEEA-γGlu-C18 diacid])LATLPRTETGSGAP-NH2 [Compound 85]”: the “Purity loss per week at 37° C.” value in data set [4] was 2.0%. The EC50 in data set [5] (setting [8]) worked out at 30.3 pM; in data set [5] (setting [9]), 3.52 pM; in data set [6] (setting [10]) it was 250 pM; in data set [6] (setting [11]) it was 4.4 pM; in data set [7] (setting [12]), 14.6 pM; in data set [7] (setting [13]), 2.71 pM.
For the compound “H[Aib]HGTFTSDYSILLEEQAAREFIEWLLAGGPSSGEASHLSTAQTQRLSAELHRLATLPK([AEEA-AEEA-γGlu-C18 diacid])TETGSGSP-NH2 [Compound 84]”, the “Purity loss per week at 37° C.” value in data set [4] came out at 2.9%. In addition, the EC50 is 25.9 pM in data set [5] (setting [8]); 3.31 pM in data set [5] (setting [9]); 175 pM in data set [6] (setting [10]); 4.41 pM in data set [6] (setting [11]); 11.6 pM in data set [7] (setting [12]); 3 pM in data set [7] (setting [13]).
In the case of “H[Aib]HGTFTSDYSILLEEQAAREFIEWLLAGGPSSGEASHLSTAQTQRLSAELHRLK([AEEA-AEEA-γGlu-C18 diacid])TLPRTETGSGSP-NH2 [Compound 83]”, the “Purity loss per week at 37° C.” value in data set [4] was 2.3%. For the same compound, the EC50 came to 9.89 pM in data set [5] (setting [8]); 2.3 pM in data set [5] (setting [9]); 45.7 pM in data set [6] (setting [10]); 2.9 pM in data set [6] (setting [11]); 13.6 pM in data set [7] (setting [12]); 2.92 pM in data set [7] (setting [13]).

For orientation: EC50 means the concentration at which the effect is half-maximal.

These data come from patent publication US20260174875A1 (Novo Nordisk A/S, priority 2023, published 2026).
